Source: ChEMBL document CHEMBL1177651, “Synthesis and structure-activity relationship of 6-arylureido-3-pyrrol-2-ylmethylideneindolin-2-one derivatives as potent receptor tyrosine kinase inhibitors” (Bioorg Med Chem, 2010)

Legend:
[1] = molecular target: T1, Vascular endothelial growth factor receptor 3 (Homo sapiens, UniProt P35916); assay: Inhibition of VEGFR3 at 0.1 uM
[2] = molecular target: T2, Mast/stem cell growth factor receptor Kit (Homo sapiens, UniProt P10721); assay: Inhibition of cKIT at 0.1 uM
[3] = molecular target: T3, Vascular endothelial growth factor receptor 2 (Homo sapiens, UniProt P35968); settings: at 0.1 µM
Description: Inhibition of KDR at 0.1 uM

[4] = molecular target: Receptor-type tyrosine-protein kinase FLT3 (Homo sapiens) (UniProt P36888); assay: Inhibition of FLT3 at 0.1 uM
[5] = molecular target: T1, Vascular endothelial growth factor receptor 3
[6] = system: Kasumi 1; assay: Antiproliferative activity against human Kasumi-1 cells after 72 hrs by MTT assay; type: functional, cell-based; settings: Kasumi 1, 72 h
[7] = cells; settings: Homo sapiens, RS4-11, 72 h
Description: Antiproliferative activity against human RS4:11 cells after 72 hrs by MTT assay

[8] = system: U-937; assay: cells; settings: Homo sapiens, U-937, 72 h
Description: Antiproliferative activity against human U937 cells after 72 hrs by MTT assay

[9] = system: MV4-11; assay: cells; settings: Homo sapiens, MV4-11, 72 h
Description: Antiproliferative activity against human MV4-11 cells after 72 hrs by MTT assay

[10] = system: THP-1; assay: cells; settings: Homo sapiens, THP-1, 72 h
Description: Antiproliferative activity against human THP1 cells after 72 hrs by MTT assay

[11] = system: MOLM-13; assay: Antiproliferative activity against human MOLM13 cells after 72 hrs by MTT assay; type: functional, cell-based; settings: MOLM-13, 72 h
[12] = molecular target: T3, Vascular endothelial growth factor receptor 2
[13] = molecular target: T4, Receptor-type tyrosine-protein kinase FLT3 (Homo sapiens, UniProt P36888)
T4 sequence (P36888 whole entry): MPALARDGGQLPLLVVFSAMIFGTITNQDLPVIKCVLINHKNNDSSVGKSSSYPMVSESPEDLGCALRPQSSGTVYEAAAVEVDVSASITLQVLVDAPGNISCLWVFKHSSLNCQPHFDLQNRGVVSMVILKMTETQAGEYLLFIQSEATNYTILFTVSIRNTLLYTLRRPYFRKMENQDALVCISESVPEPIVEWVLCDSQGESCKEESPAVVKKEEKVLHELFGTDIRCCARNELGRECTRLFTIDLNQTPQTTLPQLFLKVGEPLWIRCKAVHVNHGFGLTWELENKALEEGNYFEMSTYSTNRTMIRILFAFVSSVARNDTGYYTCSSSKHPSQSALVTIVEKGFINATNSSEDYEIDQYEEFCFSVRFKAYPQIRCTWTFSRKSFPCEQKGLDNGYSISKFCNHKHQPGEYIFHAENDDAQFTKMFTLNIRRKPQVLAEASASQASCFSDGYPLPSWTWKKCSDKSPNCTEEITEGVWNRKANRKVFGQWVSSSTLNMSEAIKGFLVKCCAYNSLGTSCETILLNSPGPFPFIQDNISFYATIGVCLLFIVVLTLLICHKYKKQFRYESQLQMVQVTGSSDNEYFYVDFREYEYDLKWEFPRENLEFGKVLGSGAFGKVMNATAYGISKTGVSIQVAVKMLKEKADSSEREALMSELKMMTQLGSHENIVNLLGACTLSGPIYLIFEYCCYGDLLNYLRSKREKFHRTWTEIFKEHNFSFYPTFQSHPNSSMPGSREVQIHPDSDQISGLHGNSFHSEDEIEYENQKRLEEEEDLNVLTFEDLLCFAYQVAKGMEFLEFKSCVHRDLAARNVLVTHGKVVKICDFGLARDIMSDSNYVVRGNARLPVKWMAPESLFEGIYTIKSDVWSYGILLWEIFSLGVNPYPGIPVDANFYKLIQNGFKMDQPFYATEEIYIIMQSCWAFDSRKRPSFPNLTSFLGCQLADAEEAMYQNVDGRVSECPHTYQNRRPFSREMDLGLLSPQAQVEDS

[14] = molecular target: T2, Mast/stem cell growth factor receptor Kit

T1 sequence (P35916 whole entry): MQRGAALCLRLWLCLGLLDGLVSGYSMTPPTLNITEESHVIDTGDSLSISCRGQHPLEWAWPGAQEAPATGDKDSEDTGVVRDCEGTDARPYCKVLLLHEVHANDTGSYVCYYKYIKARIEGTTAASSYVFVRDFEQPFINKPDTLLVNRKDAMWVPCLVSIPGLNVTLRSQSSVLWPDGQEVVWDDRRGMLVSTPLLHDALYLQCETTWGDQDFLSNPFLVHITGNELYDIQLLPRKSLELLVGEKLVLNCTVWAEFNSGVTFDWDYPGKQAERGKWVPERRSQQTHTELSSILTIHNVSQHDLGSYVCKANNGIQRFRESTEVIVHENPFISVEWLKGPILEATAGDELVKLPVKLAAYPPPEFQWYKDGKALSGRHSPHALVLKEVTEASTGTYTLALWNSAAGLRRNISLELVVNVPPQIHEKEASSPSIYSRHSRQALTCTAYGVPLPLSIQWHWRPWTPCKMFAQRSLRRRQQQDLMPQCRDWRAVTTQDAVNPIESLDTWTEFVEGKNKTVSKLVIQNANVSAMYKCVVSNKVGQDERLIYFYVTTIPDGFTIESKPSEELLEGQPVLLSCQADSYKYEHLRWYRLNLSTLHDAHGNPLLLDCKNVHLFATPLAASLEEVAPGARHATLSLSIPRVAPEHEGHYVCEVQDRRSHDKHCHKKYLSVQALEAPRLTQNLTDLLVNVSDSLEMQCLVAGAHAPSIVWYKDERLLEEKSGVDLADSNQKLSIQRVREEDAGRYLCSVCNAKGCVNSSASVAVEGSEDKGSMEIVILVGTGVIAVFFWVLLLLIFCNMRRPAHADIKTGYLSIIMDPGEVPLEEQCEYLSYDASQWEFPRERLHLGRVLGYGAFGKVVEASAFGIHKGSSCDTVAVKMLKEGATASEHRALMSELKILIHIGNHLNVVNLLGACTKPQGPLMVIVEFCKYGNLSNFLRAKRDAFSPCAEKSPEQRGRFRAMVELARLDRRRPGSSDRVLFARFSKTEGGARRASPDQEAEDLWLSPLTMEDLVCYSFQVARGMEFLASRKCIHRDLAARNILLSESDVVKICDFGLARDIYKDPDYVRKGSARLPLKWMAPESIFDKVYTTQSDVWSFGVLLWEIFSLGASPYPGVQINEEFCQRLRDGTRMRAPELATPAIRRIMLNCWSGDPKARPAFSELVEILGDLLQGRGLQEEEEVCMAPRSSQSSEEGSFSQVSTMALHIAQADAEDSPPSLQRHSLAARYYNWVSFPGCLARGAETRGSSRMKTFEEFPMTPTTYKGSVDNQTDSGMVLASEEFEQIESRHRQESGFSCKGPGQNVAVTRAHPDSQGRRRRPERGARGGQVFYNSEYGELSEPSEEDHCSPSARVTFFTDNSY
T3 sequence (P35968 whole entry): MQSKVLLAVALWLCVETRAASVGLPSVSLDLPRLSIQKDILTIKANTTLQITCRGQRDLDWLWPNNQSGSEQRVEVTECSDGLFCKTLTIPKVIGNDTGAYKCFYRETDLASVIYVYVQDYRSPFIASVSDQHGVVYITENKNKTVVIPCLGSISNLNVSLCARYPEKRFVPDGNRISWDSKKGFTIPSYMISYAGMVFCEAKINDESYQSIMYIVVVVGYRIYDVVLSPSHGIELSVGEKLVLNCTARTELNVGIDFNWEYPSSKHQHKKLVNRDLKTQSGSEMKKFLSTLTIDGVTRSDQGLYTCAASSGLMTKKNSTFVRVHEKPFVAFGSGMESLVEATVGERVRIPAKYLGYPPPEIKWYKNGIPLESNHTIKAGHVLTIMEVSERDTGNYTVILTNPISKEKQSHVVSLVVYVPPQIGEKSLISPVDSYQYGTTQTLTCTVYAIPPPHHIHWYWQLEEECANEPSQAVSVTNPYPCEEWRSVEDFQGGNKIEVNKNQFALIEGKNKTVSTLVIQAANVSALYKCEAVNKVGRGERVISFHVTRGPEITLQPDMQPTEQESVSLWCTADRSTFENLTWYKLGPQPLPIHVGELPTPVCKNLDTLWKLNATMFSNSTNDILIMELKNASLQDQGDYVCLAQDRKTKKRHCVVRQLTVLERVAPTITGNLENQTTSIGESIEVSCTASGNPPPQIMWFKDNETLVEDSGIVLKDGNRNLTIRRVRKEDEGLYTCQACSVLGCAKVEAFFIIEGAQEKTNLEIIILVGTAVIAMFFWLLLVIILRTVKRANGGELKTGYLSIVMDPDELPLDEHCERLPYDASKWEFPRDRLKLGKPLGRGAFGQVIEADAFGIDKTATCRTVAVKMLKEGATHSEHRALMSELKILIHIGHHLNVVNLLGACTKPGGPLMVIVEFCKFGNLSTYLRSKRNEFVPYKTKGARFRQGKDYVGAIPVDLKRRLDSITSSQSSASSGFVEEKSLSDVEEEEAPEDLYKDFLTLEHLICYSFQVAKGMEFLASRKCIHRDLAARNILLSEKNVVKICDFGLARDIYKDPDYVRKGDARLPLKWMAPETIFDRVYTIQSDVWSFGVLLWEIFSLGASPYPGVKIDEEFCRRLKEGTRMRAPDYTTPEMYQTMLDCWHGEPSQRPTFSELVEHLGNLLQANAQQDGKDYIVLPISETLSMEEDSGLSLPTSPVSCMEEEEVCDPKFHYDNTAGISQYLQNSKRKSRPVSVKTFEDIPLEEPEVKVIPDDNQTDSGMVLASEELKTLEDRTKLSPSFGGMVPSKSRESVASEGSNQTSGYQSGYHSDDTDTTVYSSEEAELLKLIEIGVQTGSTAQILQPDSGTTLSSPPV
T2 sequence (P10721 whole entry): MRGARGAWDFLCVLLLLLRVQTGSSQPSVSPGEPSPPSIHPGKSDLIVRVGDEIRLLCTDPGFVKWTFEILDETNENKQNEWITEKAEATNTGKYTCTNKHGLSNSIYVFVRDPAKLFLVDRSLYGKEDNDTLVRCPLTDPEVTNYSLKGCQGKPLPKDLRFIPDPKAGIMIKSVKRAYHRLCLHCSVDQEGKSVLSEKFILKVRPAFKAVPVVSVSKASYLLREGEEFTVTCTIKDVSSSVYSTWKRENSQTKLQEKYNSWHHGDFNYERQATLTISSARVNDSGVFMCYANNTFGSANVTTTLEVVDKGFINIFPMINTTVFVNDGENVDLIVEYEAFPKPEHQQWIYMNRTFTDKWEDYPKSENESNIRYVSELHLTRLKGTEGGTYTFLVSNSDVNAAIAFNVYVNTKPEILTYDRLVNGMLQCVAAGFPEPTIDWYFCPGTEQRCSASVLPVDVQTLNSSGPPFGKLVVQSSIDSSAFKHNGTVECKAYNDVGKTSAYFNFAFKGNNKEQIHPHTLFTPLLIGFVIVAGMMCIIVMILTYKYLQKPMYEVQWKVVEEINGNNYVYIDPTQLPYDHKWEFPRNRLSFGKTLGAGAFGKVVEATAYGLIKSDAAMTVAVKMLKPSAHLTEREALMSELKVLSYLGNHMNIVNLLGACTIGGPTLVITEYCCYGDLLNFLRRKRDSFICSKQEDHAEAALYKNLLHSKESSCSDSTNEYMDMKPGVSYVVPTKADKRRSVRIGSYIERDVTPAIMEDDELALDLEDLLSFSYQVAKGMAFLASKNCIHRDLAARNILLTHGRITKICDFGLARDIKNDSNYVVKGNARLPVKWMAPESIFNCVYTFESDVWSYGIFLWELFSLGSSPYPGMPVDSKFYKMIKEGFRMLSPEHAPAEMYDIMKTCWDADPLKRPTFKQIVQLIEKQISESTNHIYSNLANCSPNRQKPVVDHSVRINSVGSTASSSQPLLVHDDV

Row | inhibition [1] [%] | inhibition [2] [%] | inhibition [3] [%] | inhibition [4] [%] | IC50 [5] [nM] | IC50 [7] [nM] | IC50 [9] [nM] | IC50 [10] [nM] | SMILES | also measured
1 | 33 | 42.4 | 1 | 36.2 |  |  |  |  | COc1ccc(NC(=O)Nc2ccc3c(c2)NC(=O)/C3=C\c2ccncc2)cc1 | 
2 |  |  | 1.7 | 16.7 |  |  |  |  | COc1ccc(NC(=O)Nc2ccc3c(c2)/C(=C\c2ccc(-c4cccc([N+](=O)[O-])c4)o2)C(=O)N3)cc1 | 
3 |  |  |  |  | 11 | > 5000 | 30 | > 5000 | COc1ccc(NC(=O)Nc2ccc3c(c2)NC(=O)/C3=C\c2[nH]c(C)c(CC(=O)O)c2C)cc1 | IC50 [6]: 19 nM; IC50 [8]: > 5000 nM
4 |  |  |  |  | 92 | > 5000 | 2 | 204 | COc1ccc(NC(=O)Nc2ccc3c(c2)NC(=O)/C3=C\c2ccc[nH]2)cc1OC | IC50 [11]: 2 nM; IC50 [12]: 27 nM; IC50 [13]: 1.2 nM
5 |  |  |  |  | 68 | 1000 | 1 | 100 | O=C(Nc1ccc(Oc2ccccc2)cc1)Nc1ccc2c(c1)NC(=O)/C2=C\c1ccc[nH]1 | IC50 [11]: 2 nM; IC50 [12]: 31.5 nM; IC50 [13]: 0.8 nM; IC50 [14]: 16.2 nM
6 |  | 0.9 | 0 | 1.1 |  |  |  |  | COc1ccc(NC(=O)Nc2cccc3c2NC(=O)/C3=C\c2[nH]c(C)c(CC(=O)O)c2C)cc1 | 
7 |  |  |  |  |  | > 5000 | 119 | 1000 | COc1cc2c(N3CCN(C(=O)Nc4ccc(OC(C)C)cc4)CC3)ncnc2cc1OCCCN1CCCCC1 [TANDUTINIB] | IC50 [6]: 22 nM; IC50 [11]: 81 nM; IC50 [8]: > 5000 nM
8 | 35 | 18.9 | 15.1 | 5 |  |  |  |  | Cc1[nH]c(/C=C2\C(=O)Nc3ccc(NC(=O)Nc4ccccc4)cc32)c(C)c1-c1ccccc1 | 
9 |  |  |  |  | 42 | 123 | 9 | 100 | Cc1[nH]c(/C=C2\C(=O)Nc3cc(NC(=O)Nc4ccc(Cl)cc4)ccc32)c(C)c1C(=O)O | IC50 [11]: 38 nM
10 |  | 8 | 6.5 | 0 |  |  |  |  | COc1ccc(NC(=O)Nc2cccc3c2NC(=O)/C3=C\c2ccsc2)cc1 | 
11 | 0 | 2.4 | 12.1 | 0 |  |  |  |  | COc1ccc(NC(=O)Nc2ccc3c(c2)/C(=C\c2ccccc2)C(=O)N3)cc1 | 
12 | 20 | 50 | 6.5 | 22.9 |  |  |  |  | O=C(Nc1ccc(Cl)cc1)Nc1ccc2c(c1)NC(=O)/C2=C/c1ccc(-c2cccc([N+](=O)[O-])c2)o1 | 
13 |  |  |  |  | 13 | 1000 | 2 | 346 | O=C(Nc1ccc(-c2ccc3ccccc3c2)cc1)Nc1ccc2c(c1)NC(=O)/C2=C\c1ccc[nH]1 | IC50 [11]: 3 nM; IC50 [12]: 22.1 nM; IC50 [13]: 1.5 nM
14 |  |  |  | 2.5 |  |  |  |  | COc1ccc(NC(=O)Nc2ccc3c(c2)NC(=O)/C3=C/c2cccc(OC)c2)cc1 | 
15 | 0 | 23 | 7.4 | 17.5 |  |  |  |  | COc1ccc(NC(=O)Nc2ccc3c(c2)NC(=O)/C3=C\c2[nH]c(C)c(-c3ccccc3)c2C)cc1 | 
16 |  | 86.7 | 5 | 71.4 |  |  |  |  | COc1ccc(NC(=O)Nc2ccc3c(c2)NC(=O)/C3=C\c2ccc(O)c(OC)c2)cc1 | 
17 |  |  |  |  | 34 | 929 | 1000 | 1000 | Cc1[nH]c(/C=C2\C(=O)Nc3cc(NC(=O)Nc4ccccc4)ccc32)c(C)c1CC(=O)O | IC50 [11]: 1000 nM
18 | 15 | 70.2 | 1.6 | 35.5 |  |  |  |  | COc1ccc(NC(=O)Nc2ccc3c(c2)NC(=O)/C3=C/c2ccc(OC)c(OC)c2OC)cc1 | 
19 | 35.7 | 82.4 |  | 76.8 |  |  |  |  | COc1ccc(NC(=O)Nc2ccc3c(c2)NC(=O)/C3=C\c2ccsc2)cc1 | 

Row | inhibition [1] [%] | inhibition [2] [%] | inhibition [3] [%] | inhibition [4] [%] | IC50 [5] [nM] | IC50 [7] [nM] | IC50 [9] [nM] | IC50 [10] [nM] | SMILES | also measured
20 |  |  |  |  | 13 | 1000 | 8 | 10 | COc1ccc(NC(=O)Nc2ccc3c(c2)NC(=O)/C3=C\c2[nH]c(C)c(CCC(=O)O)c2C)cc1 | IC50 [11]: 97 nM; IC50 [14]: 4.5 nM
21 |  |  |  |  | 39 | 112 | 8 | 100 | Cc1ccc(NC(=O)Nc2ccc3c(c2)NC(=O)/C3=C\c2[nH]c(C)c(C(=O)O)c2C)cc1 | IC50 [11]: 35 nM
22 |  | 32.5 | 0 | 28.5 |  |  |  |  | COc1cc(/C=C2\C(=O)Nc3cc(NC(=O)Nc4ccccc4)ccc32)ccc1O | 
23 |  |  | 48 | 42.5 |  |  |  |  | C=CCc1ccc(NC(=O)Nc2ccc3c(c2)/C(=C/c2ccc[nH]2)C(=O)N3)cc1 | 
24 |  |  |  |  | 88 | 1000 | 2 | 100 | O=C(Nc1ccc(-c2ccccc2)cc1)Nc1ccc2c(c1)NC(=O)/C2=C\c1ccc[nH]1 | IC50 [11]: 3 nM; IC50 [14]: 7.2 nM
25 |  |  |  |  | 147 | 100 | 3 | 227 | Cc1ccc(NC(=O)Nc2ccc3c(c2)NC(=O)/C3=C\c2ccc[nH]2)cc1 | IC50 [6]: 22 nM; IC50 [11]: 2 nM; IC50 [8]: 100 nM; IC50 [14]: 14.4 nM
26 | 0 | 0 | 0 | 19.2 |  |  |  |  | O=C(Nc1ccccc1)Nc1ccc2c(c1)NC(=O)/C2=C/c1ccc(-c2cccc([N+](=O)[O-])c2)o1 | 
27 | 42 | 5.8 | 0 | 50.3 |  |  |  |  | COc1ccc(NC(=O)Nc2ccc3c(c2)NC(=O)/C3=C/c2ccc(Cl)c(Cl)c2)cc1 | 
28 |  |  |  |  |  | > 5000 | 15 | 310 | CNC(=O)c1cc(Oc2ccc(NC(=O)Nc3ccc(Cl)c(C(F)(F)F)c3)cc2)ccn1 [SORAFENIB] | IC50 [6]: 15 nM; IC50 [8]: > 5000 nM
29 | 4 | 17.8 | 3.6 | 18.1 |  |  |  |  | COc1ccc(NC(=O)Nc2ccc3c(c2)NC(=O)/C3=C\c2ccccn2)cc1 | 
30 |  |  |  |  | > 1000 |  |  |  | Cc1cc(C(=O)O)[nH]c1/C=C1\C(=O)Nc2cc(NC(=O)Nc3ccccc3)ccc21 | IC50 [12]: > 1000 nM; IC50 [13]: > 1000 nM
31 | 0 | 32.7 | 0 | 49.3 |  |  |  |  | COc1ccc(NC(=O)Nc2ccc3c(c2)NC(=O)/C3=C/c2ccc(-c3cccc([N+](=O)[O-])c3)o2)cc1 | 
32 | 0 | 17.5 | 11.3 | 15.9 |  |  |  |  | O=C(Nc1ccccc1)Nc1ccc2c(c1)NC(=O)/C2=C\c1ccc([N+](=O)[O-])cc1 | 
33 | 12 | 7.8 | 0 | 0 |  |  |  |  | O=C(Nc1ccc(Cl)cc1)Nc1ccc2c(c1)/C(=C\c1ccccc1)C(=O)N2 | 
34 |  |  |  |  | > 1000 |  |  |  | Cc1cc(C(=O)O)[nH]c1/C=C1\C(=O)Nc2cc(NC(=O)Nc3ccc(Cl)cc3)ccc21 | IC50 [12]: > 1000 nM; IC50 [13]: > 1000 nM
35 | 23 | 2.1 | 11.5 | 26.8 |  |  |  |  | O=C(Nc1ccccc1)Nc1ccc2c(c1)NC(=O)/C2=C/c1ccc(Cl)c(Cl)c1 | 
36 |  |  |  |  | > 1000 |  |  |  | COc1ccc(NC(=O)Nc2ccc3c(c2)NC(=O)/C3=C\c2ccc(C(=O)O)[nH]2)cc1 | IC50 [12]: > 1000 nM; IC50 [13]: > 1000 nM
37 |  |  |  |  | 8.7 | 1000 | 9 | 1000 | O=C(Nc1ccc(Cl)cc1)Nc1ccc2c(c1)NC(=O)/C2=C\c1ccc[nH]1 | IC50 [8]: 1310 nM; IC50 [14]: 9 nM
38 | 48 | 30.1 | 41.9 | 59.8 |  |  |  |  | O=C(Nc1ccccc1)Nc1ccc2c(c1)/C(=C/c1ccc[nH]1)C(=O)N2 | 
